Consider two compounds from patent publication US8962662B2, “Antimicrobial compositions and methods of use thereof” (Byocoat Enterprises, Inc., priority 2011, dated 2015).

One assay deals with yeast and mold. In words: Yeast and mold growth (CFU) on whole poultry carcasses after spray treatment, day 1 versus day 7. It is filed as cell-based. To be noted: for log growth in yeast and mold over 7 days: day 7 minus day 1 log average. As to the method:
(§1) The following solutions were prepared. A cetylpyridinium chloride (CPC) solution was prepared by combining 1.0 g of cetylpyridinium chloride (CAS No. 123-03-05) in 100 mL of water to form a nominal 1.0 wt % CPC test solution. An epsilon-polylysine (EPL) solution was prepared by combining 4.3 g epsilon-polylysine (CAS No. 25104-18-1) in water to form 100 mL of aqueous solution to form a nominal 4.3 wt % EPL test solution. The combination test solution was prepared by combining 1.0 g of cetylpyridinium chloride and 4.3 g epsilon-polylysine in water to form 100 mL of aqueous solution to form a standard concentration combination solution, and 3.7 g of this standard concentration solution was diluted up to 100 mL to form a combination test solution, which is diluted roughly 27-fold from the from the standard concentration solution.
(§2) The following test method was used. Whole poultry carcasses were collected from the processing line following evisceration and rinse. The carcasses were then treated with the CPC, EPL, or combined CPC+EPL products and dilution rates as listed above, using a Lillard spray application for 5 seconds. Following 10 seconds of dwell time, a 25 gram sample of the product was collected and immediately tested to establish a control sample set-point, and 325 grams of the same carcass were incubated at 37° C. for 168 hours (7 days). Following the incubation cycle, a second 25 gram sample was collected from the 325 gram control for testing evaluation of yeast and mold growth. A second 25 gram composite sample was collected from the same 325 gram control for pathogenic testing for salmonella presence. All samples were tested using AOAC accredited methods in an AOAC accredited API examined laboratory. Confirmation (split) samples were processed at ABC Research Laboratory.

In a further assay the test system is Salmonella. The assay can be described thus: Pathogenic testing for salmonella presence on treated poultry carcass samples after 7 day incubation. It is filed as cell-based. To be noted: for salmonella prevalence rate (samples tested positive): after 7 day incubation. As to the method: as §1, §2

“Also recorded” adds a separate entry of the source.

On to `CCCCCCCCCCCCCCCC[n+]1ccccc1` [CPC, cetylpyridinium chloride], for which, in the assay with yeast and mold (CPC (1.0%) only), the “log growth in yeast and mold over 7 days” value was 4.995 log. Moreover, the “Log Avg, CPC Day 7” value in the assay on yeast and mold (average of 10 samples, cetylpyridinium chloride (1.0%), after 7 days at 37° C.) worked out at 7.264. Also, the “Log Avg, CPC Day 1” value in the assay with yeast and mold (average of 10 samples, cetylpyridinium chloride (1.0%), day 1 set-point) is recorded as 2.269. Besides, the “salmonella prevalence rate (samples tested positive)” value with Salmonella (CPC (1.0%) only) worked out at 20%.

Consider ε-poly-L-lysine [EPL], for which the “log growth in yeast and mold over 7 days” value with yeast and mold (EPL (4.3%) only) is 3.677 log. Besides, the “Log Avg, EPL Day 7” value with yeast and mold (average of 10 samples, ε-poly-L-lysine (4.3%), after 7 days at 37° C.) is listed as 6.97. Moreover, the “Log Avg, EPL Day 1” value in the assay on yeast and mold (average of 10 samples, ε-poly-L-lysine (4.3%), day 1 set-point) turned out to be 3.293. Moreover, in the assay on Salmonella (EPL (4.3%) only, 10 samples), the “seven-day samples tested positive for Salmonella” value is reported as 4 of 10. Further, in the assay with Salmonella (EPL (4.3%) only), the “salmonella prevalence rate (samples tested positive)” value came to 40%. The “Salmonella, EPL Day 7” value in the assay with Salmonella (ε-poly-L-lysine (4.3%), after 7 days at 37° C.) is given as “NEGATIVE; also recorded: POSITIVE”.
